The values below come from patent publication US20110065706A1, “Therapeutic Agents 812” (AstraZeneca AB, priority 2009, published 2011).

Broadly, the EC50 is the midpoint of the concentration-response curve. Low readings indicate higher potency in that assay, high ones lower potency in that assay.

In the first test the target is T1, human GPR119 (Homo sapiens, UniProt Q8TDV5).
T1 construct: expressed in transfected cells; host or cells: HEK 293s
T1 sequence (Q8TDV5 1-335): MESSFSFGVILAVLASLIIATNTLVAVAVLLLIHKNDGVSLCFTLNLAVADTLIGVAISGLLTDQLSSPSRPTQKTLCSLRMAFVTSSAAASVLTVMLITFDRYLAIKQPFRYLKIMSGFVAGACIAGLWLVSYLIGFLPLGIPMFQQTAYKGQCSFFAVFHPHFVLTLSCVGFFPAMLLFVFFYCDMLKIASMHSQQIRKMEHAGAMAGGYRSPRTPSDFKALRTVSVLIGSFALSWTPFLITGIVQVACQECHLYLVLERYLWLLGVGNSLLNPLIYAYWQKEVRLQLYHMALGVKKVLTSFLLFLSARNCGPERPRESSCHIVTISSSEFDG
As to the kind of experiment: Cyclic AMP (HTRF cAMP) assay for human GPR119, Method A. The settings on record: HEK293S, 0.75 h; Method A; HEK 293s cells over-expressing human GPR119; percent effect at top concentration 30 μM relative to maximum (50 μM Oleoylethanolamide) and minimum (1% DMSO) controls. The format is cell-based. A general note: Time-resolved FRET reads energy transfer from a long-lived donor to a nearby acceptor.
Take `CC(C)OC(=O)N1CCN(c2ncc(OCc3ccc(S(C)(=O)=O)cc3)cn2)[C@H](C)C1` [Example 57, (R)-isopropyl 3-methyl-4-(5-(4-(methylsulfonyl)benzyloxy)pyrimidin-2-yl)piperazine-1-carboxylate]: the activation at 30 µM was found to be 69%.
In the case of `C[C@@H]1CN(C(=O)OC(C)(C)C)CCN1c1ncc(OCc2ccc(S(C)(=O)=O)cc2)cn1` [Example 18, (R)-Tert-butyl 3-methyl-4-(5-(4-(methylsulfonyl)benzyloxy)pyrimidin-2-yl)piperazine-1-carboxylate], the activation at 30 µM worked out at 155%.
On the same count and under the same terms, for `CC(C)c1nc(N2CCN(c3ncc(OCc4ccncc4C#N)cn3)CC2)no1` [Example 85, 4-((2-(4-(5-Isopropyl-1,2,4-oxadiazol-3-yl)piperazin-1-yl)pyrimidin-5-yloxy)methyl)nicotinonitrile] the value was 167%.
Same read-out and setting: the result for `C[C@@H]1CN(C(=O)OC2CCOC2)CCN1c1ncc(OCc2ccc(S(C)(=O)=O)cc2)cn1` (stereo partly drawn) [Example 78, (3R)-Tetrahydrofuran-3-yl 3-methyl-4-(5-(4-(methylsulfonyl)benzyloxy)pyrimidin-2-yl)piperazine-1-carboxylate] reads 8%; that for `CC(C)(C)OC(=O)N1C[C@@H]2CC[C@H]1CN2c1ncc(OCc2ccc(S(C)(=O)=O)cc2)cn1` [Example 29, (1S,4S)-tert-butyl 5-(5-(4-(methylsulfonyl)benzyloxy)pyrimidin-2-yl)-2,5-diazabicyclo [2.2.2]octane-2-carboxylate], 36%; that for `C[C@@H]1CN(C(=O)OC2(C)CC2)CCN1c1ncc(OCc2ccc(S(C)(=O)=O)cc2)cn1` [Example 61, (R)-1-methylcyclo-propyl 3-methyl-4-(5-(4-(methylsulfonyl)benzyloxy)pyrimidin-2-yl)piperazine-1-carboxylate], 91%.
Still for that read-out and setting: the result for `C[C@@H]1CN(C(=O)OC2CCC2)CCN1c1ncc(OCc2ccc(S(C)(=O)=O)cc2)cn1` [Example 64, (R)-cyclobutyl 3-methyl-4-(5-(4-(methylsulf-onyl)benzyl-oxy)pyrimi-din-2-yl)piperazine-1-carboxylate] reads 57%; that for `Cc1nc(-c2ccc(COc3cnc(N4CCN(C(=O)OC(C)(C)C)CC4)nc3)cc2)no1` [Example 4, tert-butyl 4-(5-(4-(5-methyl-1,2,4-oxadiazol-3-yl)benzyloxy)pyrimidin-2-yl)piperazine-1-carboxylate], 69%.
On to `C[C@@H]1CN(C(=O)OC2(C(F)(F)F)COC2)CCN1c1ncc(OCc2ccc(S(C)(=O)=O)cc2)cn1` [Example 110, (R)-3-(trifluoromethyl) oxetan-3-yl 3-mcthyl-4-(5-(4-(mcthylsulfonyl)benzyloxy)pyrimidin-2-yl)piperazine-1-carboxylate], for which the activation at 30 µM worked out at 55%.
The same measure, in the same setting: for `CCS(=O)(=O)c1ccc(COc2cnc(N3CCN(C(=O)OC(C)(C)C)CC3)nc2)cc1` [Example 83, Tert-butyl 4-(5-(4-(ethylsulfonyl)benzyloxy)pyrimidin-2-yl)piperazine-1-carboxylate] the value was 66%.
The same measure, in the same setting: the result for `Cc1cc(COc2cnc(N3CCN(C(=O)OC(C)(C)C)CC3)nc2)ccc1NC(=O)C(C)C` [Example 12, tert-butyl 4-(5-(4-isobutyr-amido-3-methyl-benzyloxy)pyrimidin-2-yl)piperazine-1-carboxylate] reads 54%; that for `CS(=O)(=O)c1ccc(COc2cnc(N3CCN(C(=O)OC4COC4)CC3)nc2)cc1` [Example 75, Oxetan-3-yl 4-(5-(4-(methylsulfonyl)benzyloxy)pyrimidin-2-yl)piperazine-1-carboxylate], 31%; that for `C[C@@H]1CN(C(=O)OC2CCOCC2)CCN1c1ncc(OCc2ccncc2C#N)cn1` [Example 82, (R)-Tetrahydro-2H-pyran-4-yl 4-(5-((3-cyanopyridin-4-yl)methoxy)pyrimidin-2-yl)-3-methylpiperazine-1-carboxylate], 102%.
On the same count and under the same terms, for `CC(C)c1nc(N2CCN(c3ncc(OCc4ccc(S(C)(=O)=O)cc4)cn3)CC2)no1` [Example 87, 5-Isopropyl-3-(4-(5-(4-(methylsulfonyl)benzyloxy)pyrimidin-2-yl)piperazin-1-yl)-1,2,4-oxadiazole] the value was 48%.
For `C[C@@H]1CN(C(=O)O[C@@H](C)C(F)(F)F)CCN1c1ncc(OCc2ccncc2C#N)cn1` [Example 104, (R)-((S)-1,1,1-trifluoropropan-2-yl)4-(5-((3-cyanopyridin-4-yl)methoxy)pyrimidin-2-yl)-3-mcthylpipcrazine-1-carboxylate], the activation at 30 µM was found to be 315%.
The same measure, in the same setting: for `CC(C)(C)OC(=O)N1CCN(c2ncc(OCc3ccc(C(=O)N4CCOCC4)cc3)cn2)CC1` [Example 53] the value was 44%; for `COc1cc(COc2cnc(N3CCN(C(=O)OC(C)(C)C)CC3)nc2)c(F)cn1` [Example 8, tert-butyl 4-(5-((5-fluoro-2-methoxy-pyridin-4-yl)methoxy)pyrimidin-2-yl)piperazine-1-carboxylate], 26%.
Same read-out and setting: the result for `CC(C)(C)OC(=O)N1CCN(c2ncc(OCc3ccc(OS(C)(=O)=O)cc3)cn2)CC1` [Example 17, tert-butyl 4-(5-(4-(methyl-sulfonyloxy)benzyloxy)pyrimidin-2-yl)piperazine-1-carboxylate] reads 65%.
The compound `CC(C)(C)OC(=O)N1CCN(c2ncc(OCc3ccc(C(=O)NCCO)cc3)cn2)CC1` [Example 44, tert-butyl 4-(5-(4-(2-hydroxyethyl-carbamoyl)benz-yloxy)pyrimi-din-2-yl)piperazine-1-carboxylate] showed an activation at 30 µM of 61%.
The compound `C[C@@H]1CN(C(=O)O[C@H](C)C(F)(F)F)CCN1c1ncc(OCc2ccncc2C#N)cn1` [Example 103, (R)—((R)-1,1,1-trifluoropropan-2-yl) 4-(5-((3-cyanopyridin-4-yl)methoxy)pyrimidin-2-yl)-3-methylpiperazine-1-carboxylate] had an activation at 30 µM of 244%.
The compound `CC(C)(C)NC(=O)c1ccc(COc2cnc(N3CCN(C(=O)OC(C)(C)C)CC3)nc2)cc1` [Example 47, tert-butyl 4-(5-(4-(tert-butylcarbamoyl)benzyloxy)pyrimidin-2-yl)piperazine-1-carboxylate] displayed an activation at 30 µM of 109%.
As for `CC(C)C(=O)Nc1ccc(COc2cnc(N3CCN(C(=O)OC(C)(C)C)CC3)nc2)cc1` [Example 14, tert-butyl 4-(5-(4-isobutyramido-benzyloxy)pyrimidin-2-yl)piperazine-1-carboxylate], the activation at 30 µM came out at 78%.
The same measure, in the same setting: for `CC(C)c1nc(N2CCN(c3ncc(OCc4ccc(S(C)(=O)=O)cc4)cn3)[C@H](C)C2)no1` [Example 89] the value was 73%; for `CC(C)(C)OC(=O)N1CCN(c2ncc(OCc3ccncn3)cn2)CC1` [Example 9, tert-butyl 4-(5-(pyrimidin-4-ylmethoxy)pyrimidin-2-yl)piperazine-1-carboxylate], 61%; for `C[C@@H]1CN(C(=O)OC(C)(C)C#N)CCN1c1ncc(OCc2ccc(S(C)(=O)=O)cc2)cn1` [Example 71, (R)-2-cyanopropan-2-yl 3-methyl-4-(5-(4-(methylsulfonyl)benzyloxy)pyrimidin-2-yl)piperazine-1-carboxylate], 73%.

The test is the same for the next values; noted with them: Method A; HEK 293s cells over-expressing human GPR119; midpoint of dose response curve; selected examples.
In turn, `CCS(=O)(=O)c1ccc(COc2cnc(N3CCN(C(=O)OC(C)(C)C)CC3)nc2)cc1` [Example 83, Tert-butyl 4-(5-(4-(ethylsulfonyl)benzyloxy)pyrimidin-2-yl)piperazine-1-carboxylate] showed an EC50 of 0.123 µM.
On the same count and under the same terms, for `C[C@@H]1CN(C(=O)OC2CCOCC2)CCN1c1ncc(OCc2ccncc2C#N)cn1` [Example 82, (R)-Tetrahydro-2H-pyran-4-yl 4-(5-((3-cyanopyridin-4-yl)methoxy)pyrimidin-2-yl)-3-methylpiperazine-1-carboxylate] the value was 0.675 µM.
Still for that read-out and setting: the result for `CC(C)(C)OC(=O)N1CCN(c2ncc(OCc3ccc(OS(C)(=O)=O)cc3)cn2)CC1` [Example 17, tert-butyl 4-(5-(4-(methyl-sulfonyloxy)benzyloxy)pyrimidin-2-yl)piperazine-1-carboxylate] reads 0.02 µM.

The same test, now with this note: human GPR119 cAMP assay; top concentration 30 μM.
Turning to `CC(=O)Nc1ncc(COc2cnc(N3CCN(C(=O)OC(C)(C)C)CC3)nc2)cn1` [tert-butyl 4-[5-[(2-acetamidopyrimidin-5-yl)methoxy]pyrimidin-2-yl]piperazine-1-carboxylate], the “significant activity at a top concentration of 30 μM” value is “did not show significant activity”.
Still for that read-out and setting: the result for `CN1CCC(NC(=O)c2ccc(COc3cnc(N4CCN(C(=O)OC(C)(C)C)CC4)nc3)cc2)CC1` [tert-butyl 4-[5-[[4-[(1-methyl-4-piperidyl)carbamoyl]phenyl]methoxy]pyrimidin-2-yl]piperazine-1-carboxylate] reads “did not show significant activity”; that for `Cc1cc(COc2cnc(N3CCN(C(=O)OC(C)(C)C)CC3)nc2)ccn1` [tert-butyl 4-[5-[(2-methyl-4-pyridyl)methoxy]pyrimidin-2-yl]piperazine-1-carboxylate], “did not show significant activity”.
Same read-out and setting: the result for `CS(=O)(=O)c1ccc(COc2cnc(N3CCN(C(=O)OC4CCOC4)CC3)nc2)cc1` (stereo not shown) [tetrahydrofuran-3-yl 4-[5-[(4-methylsulfonylphenyl)methoxy]pyrimidin-2-yl]piperazine-1-carboxylate] reads “did not show significant activity”; that for `C[C@@H]1CN(C(=O)OC2CCOCC2)CCN1c1ncc(OCc2ccc(S(C)(=O)=O)cc2)cn1` [tetrahydropyran-4-yl (3R)-3-methyl-4-[5-[(4-methylsulfonylphenyl)methoxy]pyrimidin-2-yl]piperazine-1-carboxylate], “did not show significant activity”; that for `CS(=O)(=O)c1ccc(COc2cnc(N3CCN(C(=O)OC4CCOCC4)CC3)nc2)cc1` [tetrahydropyran-4-yl 4-[5-[(4-methylsulfonylphenyl)methoxy]pyrimidin-2-yl]piperazine-1-carboxylate], “did not show significant activity”.
